Measured values taken from paper PMC11672637, “7-O-Carboxylic Acid-Substituted 3-O-Alkyl Difluoroquercetin; An Aztreonam-Potentiating Agent Against Carbapenemase-Producing Pseudomonas aeruginosa Through Simultaneous Inhibition of Metallo-β-Lactamase and Efflux Pump” (Antibiotics, 2024).
Read-outs that look alike come from different tables or passages of the source.

Experiments:
Assay in all cases: MIC / checkerboard with ATM
Type in all cases: cell-based, P. aeruginosa
[1] = test system: PA-009, blaGES; settings: for MIC: Pseudomonas aeruginosa, read-out: MIC of ATM with 5, PA-009
[2] = test system: PA-035, blaGES; settings: for MIC: Pseudomonas aeruginosa, read-out: MIC of ATM with 5, PA-035
[3] = test system: PA-002, blaIMP; settings: for MIC: Pseudomonas aeruginosa, read-out: MIC of ATM with 5, PA-002
[4] = test system: PA-021, blaIMP; settings: for MIC: Pseudomonas aeruginosa, read-out: MIC of ATM with 5, PA-021
[5] = test system: PA-031, blaNDM; settings: for MIC: Pseudomonas aeruginosa, read-out: MIC of ATM with 5, PA-031
[6] = test system: PA-033, blaNDM; settings: for MIC: Pseudomonas aeruginosa, read-out: MIC of ATM with 5, PA-033
[7] = test system: PA-036, blaNDM; settings: for MIC: Pseudomonas aeruginosa, read-out: MIC of ATM with 5, PA-036
[8] = test system: PA-040, blaNDM

CC(C)(C)CCOc1c(-c2ccc(F)c(F)c2)oc2cc(OCC(=O)O)cc(O)c2c1=O [Compound 5, 2-((2-(3,4-Difluorophenyl)-3-(3,3-dimethylbutoxy)-5-hydroxy-4-oxo-4H-chromen-7-yl)oxy)acetic Acid]
Activity (FICI class) ([1]; PA-009): S (S (Synergy, FICI ≤ 0.5)) | Concentrations of ATM and 5 at lowest FICI (ATM/5) ([1]; PA-009): 8/8 | Lowest FICI (ATM/5) ([1]; PA-009): 0.28 | Minimum concentration of 5 to make sensitive to ATM ([1]; PA-009): 8 mg/L | Susceptibility to ATM ([1]; PA-009, ATM/5): S (S (sensitive, MIC ≤ 8 mg/L)) | FD (fold decrease in MIC of ATM with 5) ([1]; PA-009, lowest-FICI combination): 4 | MIC ([1]; 5 at 1 mg/L): 32 µg/mL | MIC ([1]; 5 at 2 mg/L): 16 µg/mL | MIC ([1]; 5 at 4 mg/L): 16 µg/mL | MIC ([1]; 5 at 8 mg/L): 8 µg/mL | MIC ([1]; 5 at 16 mg/L): 8 µg/mL | MIC ([1]; 5 at 32 mg/L): 4 µg/mL | MIC ([1]; 5 at 64 mg/L): 4 µg/mL | Activity (FICI class) ([2]; PA-035): S (S (Synergy, FICI ≤ 0.5)) | Concentrations of ATM and 5 at lowest FICI (ATM/5) ([2]; PA-035): 2/8 | Lowest FICI (ATM/5) ([2]; PA-035): 0.27 | Susceptibility to ATM ([2]; PA-035, ATM/5): S (S (sensitive, MIC ≤ 8 mg/L)) | FD (fold decrease in MIC of ATM with 5) ([2]; PA-035, lowest-FICI combination): 4 | MIC ([2]; 5 at 1 mg/L): 8 µg/mL | MIC ([2]; 5 at 2 mg/L): 4 µg/mL | MIC ([2]; 5 at 4 mg/L): 4 µg/mL | MIC ([2]; 5 at 8 mg/L): 2 µg/mL | MIC ([2]; 5 at 16 mg/L): 2 µg/mL | MIC ([2]; 5 at 32 mg/L): 2 µg/mL | MIC ([2]; 5 at 64 mg/L): 2 µg/mL | Activity (FICI class) ([3]; PA-002): S (S (Synergy, FICI ≤ 0.5)) | Concentrations of ATM and 5 at lowest FICI (ATM/5) ([3]; PA-002): 8/4 | Lowest FICI (ATM/5) ([3]; PA-002): 0.26 | Minimum concentration of 5 to make sensitive to ATM ([3]; PA-002): 4 mg/L | Susceptibility to ATM ([3]; PA-002, ATM/5): S (S (sensitive, MIC ≤ 8 mg/L)) | FD (fold decrease in MIC of ATM with 5) ([3]; PA-002, lowest-FICI combination): 4 | MIC ([3]; 5 at 1 mg/L): 16 µg/mL | MIC ([3]; 5 at 2 mg/L): 16 µg/mL | MIC ([3]; 5 at 4 mg/L): 8 µg/mL | MIC ([3]; 5 at 8 mg/L): 8 µg/mL | MIC ([3]; 5 at 16 mg/L): 4 µg/mL | MIC ([3]; 5 at 32 mg/L): 4 µg/mL | MIC ([3]; 5 at 64 mg/L): 2 µg/mL | Activity (FICI class) ([4]; PA-021): I (I (indifference, 0.5 < FICI ≤ 4)) | Lowest FICI (ATM/5) ([4]; PA-021): 0.50 | Susceptibility to ATM ([4]; PA-021, ATM/5): S (S (sensitive, MIC ≤ 8 mg/L)) | FD (fold decrease in MIC of ATM with 5) ([4]; PA-021, lowest-FICI combination): 2 | MIC ([4]; 5 at 1 mg/L): 1 µg/mL | MIC ([4]; 5 at 2 mg/L): 0.5 µg/mL | MIC ([4]; 5 at 4 mg/L): 0.5 µg/mL | MIC ([4]; 5 at 8 mg/L): 0.5 µg/mL | MIC ([4]; 5 at 16 mg/L): 0.5 µg/mL | MIC ([4]; 5 at 32 mg/L): 0.5 µg/mL | MIC ([4]; 5 at 64 mg/L): 0.5 µg/mL | Activity (FICI class) ([5]; PA-031): S (S (Synergy, FICI ≤ 0.5)) | Concentrations of ATM and 5 at lowest FICI (ATM/5) ([5]; PA-031): 1/8 | Lowest FICI (ATM/5) ([5]; PA-031): 0.27 | Susceptibility to ATM ([5]; PA-031, ATM/5): S (S (sensitive, MIC ≤ 8 mg/L)) | FD (fold decrease in MIC of ATM with 5) ([5]; PA-031, lowest-FICI combination): 4 | MIC ([5]; 5 at 1 mg/L): 2 µg/mL | MIC ([5]; 5 at 2 mg/L): 2 µg/mL | MIC ([5]; 5 at 4 mg/L): 2 µg/mL | MIC ([5]; 5 at 8 mg/L): 1 µg/mL | MIC ([5]; 5 at 16 mg/L): 1 µg/mL | MIC ([5]; 5 at 32 mg/L): 1 µg/mL | MIC ([5]; 5 at 64 mg/L): 1 µg/mL | Activity (FICI class) ([6]; PA-033): I (I (indifference, 0.5 < FICI ≤ 4)) | Concentrations of ATM and 5 at lowest FICI (ATM/5) ([6]; PA-033): 1/8 | Lowest FICI (ATM/5) ([6]; PA-033): 0.52 | Susceptibility to ATM ([6]; PA-033, ATM/5): S (S (sensitive, MIC ≤ 8 mg/L)) | FD (fold decrease in MIC of ATM with 5) ([6]; PA-033, lowest-FICI combination): 2 | MIC ([6]; 5 at 1 mg/L): 2 µg/mL | MIC ([6]; 5 at 2 mg/L): 2 µg/mL | MIC ([6]; 5 at 4 mg/L): 2 µg/mL | MIC ([6]; 5 at 8 mg/L): 1 µg/mL | MIC ([6]; 5 at 16 mg/L): 1 µg/mL | MIC ([6]; 5 at 32 mg/L): 1 µg/mL | MIC ([6]; 5 at 64 mg/L): 1 µg/mL | Activity (FICI class) ([7]; PA-036): S (S (Synergy, FICI ≤ 0.5)) | Concentrations of ATM and 5 at lowest FICI (ATM/5) ([7]; PA-036): 4/8 | Lowest FICI (ATM/5) ([7]; PA-036): 0.27 | Minimum concentration of 5 to make sensitive to ATM ([7]; PA-036): 4 mg/L | Susceptibility to ATM ([7]; PA-036, ATM/5): S (S (sensitive, MIC ≤ 8 mg/L)) | FD (fold decrease in MIC of ATM with 5) ([7]; PA-036, lowest-FICI combination): 4 | MIC ([7]; 5 at 1 mg/L): 16 µg/mL | MIC ([7]; 5 at 2 mg/L): 16 µg/mL | MIC ([7]; 5 at 4 mg/L): 8 µg/mL | MIC ([7]; 5 at 8 mg/L): 4 µg/mL | MIC ([7]; 5 at 16 mg/L): 4 µg/mL | MIC ([7]; 5 at 32 mg/L): 4 µg/mL | MIC ([7]; 5 at 64 mg/L): 4 µg/mL | Activity (FICI class) ([8]; PA-040): S (S (Synergy, FICI ≤ 0.5)) | Concentrations of ATM and 5 at lowest FICI (ATM/5) ([8]; PA-040): 1/32 | Lowest FICI (ATM/5) ([8]; PA-040): 0.31 | Susceptibility to ATM ([8]; PA-040, ATM/5): S (S (sensitive, MIC ≤ 8 mg/L)) | FD (fold decrease in MIC of ATM with 5) ([8]; PA-040, lowest-FICI combination): 4 | MIC ([8]; Pseudomonas aeruginosa, read-out: MIC of ATM with 5, PA-040, 5 at 1 mg/L): 4 µg/mL
